Test system: hyperglycemic response to the oral administration of glucose
Assay: Inhibition of the hyperglycemic response to oral glucose in the normoglycemic mouse
Format: in vivo, Swiss albino mice
Conditions: mice, administration at 3 mg/kg; reference 2-(1,2,3,4-tetrahydroxybutyl)-5-(2′,3′,4′-trihydroxybutyl)]pyrazine
Protocol: The hypoglycemic activity of the products of formula (I) was determined with respect to the hyperglycemic response to the oral administration of glucose in the normoglycemic mouse, according to the protocol described in Example 3. Swiss albino mice weighing between 22 and 26 g are left without nourishment for 2 hours. At the end of this period, the glycemia is measured and, immediately after, a dose of glucose (2 g/kg) is administered orally. Thirty minutes later, the glycemia is once again measured. The mice which respond by a hyperglycemia greater than 170 mg/dl are selected and used to detect the hypoglycemic activity of the products according to the invention. The mice thus chosen are divided into groups of at least 10 animals. Several groups receive doses of 3 to 50 mg/kg of product in a vehicle, such as water or a mixture of methylcellulose/tween and water, once daily by gastric intubation. The treatment lasts 4 days. On the 4th day, after the final treatment, the animals receive a dose of glucose (2 g/kg) and the glycemia is measured 20 to 40 minutes later. The percentage of inhibition of the hyperglycemic response to the administration of glucose is calculated with respect to the response measured in the group treated with the vehicle.

Compound: O=C(OC[C@@H](O)[C@@H](O)[C@H](O)c1cnc(C[C@H](O)[C@H](O)COC(=O)C2CCCCC2)cn1)C1CCCCC1 [Example 1, 4,4′-O,O-Dicyclohexyloyl-2-[(1R,2S,3R)(1,2,3,4-tetrahydroxylbutyl)]-5-[(2′S,3′R)(2′,3′,4′-trihydroxybutyl)]pyrazine]
- relative activity with respect to the reference product: 149%

Reference: patent US6818637B2, “Polyhydroxypyrazine derivatives, their preparation and the pharmaceutical compositions which comprise them” (Aventis Pharma SA, priority 1999, dated 2004)
